One data set has as its system male SD rats. As to the kind of experiment: in vivo. As to conditions: one animal per row, observed 24 hours. The procedure, abridged: (§1)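 Male SD rats (200-230 g) given single tail-vein injections, descending doses from 480 µg/Kg to 30 µg/Kg. Toxic response, mortality and time of death recorded; acute toxicity level preliminarily set from doses without mortality.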
A further data set can be described thus: in vivo. The following applies: male, SD, rat, in vivo, iv. The procedure, abridged:
as §1

Data set [1] deals with rat model of pMACO. As to the kind of experiment: mRS-6 scoring in rat model of pMACO. Type of data set: in vivo, SD rats. Also on record: mRS-7D / mRS-14D / mRS-21D / mRS-30D: scale not given here. The following applies: 3Time regimen: IRL1620 5 µg/Kg, BX225 6.6 µg/Kg. An excerpt: Male SD rats, weighing 280-300 g, were used and acclimatized for at least 3 days. Focal cerebral ischemia was induced by middle cerebral artery occlusion with a suture method under isoflurane anesthesia. The animals were placed in a supine position, a midline incision was made, and the right common carotid artery, external carotid artery, and internal carotid artery were exposed. A 4.0 monofilament nylon suture was advanced from the external carotid artery toward the internal carotid artery lumen until resistance was felt (~20 mm), indicating middle cerebral artery occlusion. The nylon filament was allowed to stay in place to create a permanent model of focal cerebral ischemia. The day of modeling was defined as D1, the next day as D2, and so on. Since the experiment was not be completed in a single batch, and in order to prevent accidental errors, all operations in this experiment had to follow the principle of parallel operation, i.e., the experiment on each day needed to include animals from each group. Sequential numbering for surgical modeling was obtained by sorting the animals according to their body weight before the experiment. After the surgery, successfully modeled pMCAO rats were randomly assigned into a model group and various treatment groups. The detailed grouping of the experiment was as follows: (1) 15 rats in the 5 µg/Kg IRL1620 group with 9 administrations over 3 days; (2) 15 rats in the 6.6 µg/Kg BX225 group with 9 administrations over 3 days; (3) 15 rats in the 19.8 µg/Kg BX225 group with 3 administrations over 3 days; (4) 15 rats in the model (normal saline) group; and (5) 6 rats in the sham group (the sham group underwent the same procedure without vascular ligation and suture insertion). The administration was performed via tail vein injection (iv) with an administration volume of 2 mL/kg. The first administration was 2 hours after the surgery. Administration frequencies were single and multiple administrations per day according to the experimental design. Administrations were performed on D1, D3, and D6, respectively, as detailed in Table 22. The model group and the sham group were given the same volume of vehicle normal saline.

In data set [2] the test system is rat model of pMACO. As to the kind of experiment: Grip strength test in rat model of pMACO. The following applies: pMACO rats; 3 administrations (2, 4, 6 h after modeling); IRL1620 5µg/Kg, BX34 7µg/Kg, BX48 5µg/Kg. Type of data set: in vivo, SD rats.
The next data set deals with SD rats. As to conditions: BX34 42 µg/Kg, BX229 6.6 µg/Kg. How it is done:
Male SD rats were anesthetized with isoflurane, and their neck hairs were shaved. A midline incision was made on the neck to expose the trachea. A ventilator and anesthesia machine for small animals were turned on, with concentration of an anesthetic gas set to 1.2, and its exit channel connected to an inlet of the ventilator. Tidal volume of the ventilator was set to 2 mL, the respiratory rate was 90 breaths/minute, and the respiratory ratio was 1:2. An outlet end of the ventilator was connected to a plastic hose, which was inserted into the rat's airway.
A machine and a software of a biological signal data acquisition and analysis system were turned on. One end of a data acquisition plate was connected to the plastic hose, and the other end was connected to a collector valve connected with a 1-mL syringe. The syringe was filled with heparinized saline, which was injected into the data acquisition plate to expel the air in the entire space until the heparinized saline flowed out from the other end of the plastic hose. The right common carotid arteries of the rats were isolated. A dead knot was made at the distal end and a slipknot at the proximal end of a right common carotid artery. A 1/2-sized incision was made in the artery between the knot with a microscissor, and the plastic hose with heparinized saline was inserted into the incision and fixed to prevent back-and-forth movement. The initial value of the blood pressure was set to zero with the zero-adjustment valve of the biological signal data acquisition and analysis system. The slipknot at the proximal end of the common carotid artery was untied, and real-time blood pressure data of the animal appeared on the software. […] The dosages of IRL1620, BX34, and BX229 were 5 µg/Kg, 42 µg/kg, and 6.6 µg/Kg, respectively.

Data set [3] has as its system rat model of pMACO. As to the kind of experiment: Foot fault test in rat model of pMACO. As to conditions: BX34 7 µg/Kg, BX48 5 µg/Kg. The class given is in vivo, SD rats. An excerpt:
Male SD rats weighing 280-300 g were used and acclimated for at least 3 days. Focal cerebral ischemia was induced by middle cerebral artery occlusion with a suture method under isoflurane anesthesia. The animals were placed in a secure supine position, and a midline incision was made to expose the right common carotid artery, external carotid artery, and internal carotid artery. A 4.0 monofilament nylon suture was advanced from the external carotid artery toward the internal carotid artery lumen until resistance was felt ( ~ 20 mm), indicating middle cerebral artery occlusion. The nylon filament was allowed to stay in place to create a permanent model of focal cerebral ischemia. Successfully modeled rats were randomly assigned to four groups: a solvent (normal saline) group (n=10), a 7 µg/Kg BX-34 group (n=10), a 5 µg/Kg BX-48 group (n=10), and a 5 µg/Kg IRL1620 group (n=10). Each group was administered once at 2 hours, 4 hours, and 6 hours, respectively, after modeling, for a total of three administrations. Grip strength was measured before administration and at 24 hours and on D3 and D7 after administration. A rotarod test and a foot fault test were performed before administration and at 24 hours and day 7 after administration. During the rotarod test, time and distance were recorded, and ratios of the measurement at 24 hours and the measurement at D7 to the pretest measurement were used as analysis indicators. The specific method for the foot fault test was as follows. The rats were placed on an elevated grid floor (29×29 cm, grid opening: 3 cm^2) for 2 minutes, and the number of foot faults (when a forelimb fell through the grid) and the total steps were recorded. % Foot fault = (the number of forelimb faults/the total number of forelimb steps) × 100.

The mark [4] stands for this setting: SD rats, tail vein, IRL620 5 µg/Kg.

SMILES strings stand for the structures. Entries after “also recorded” stand apart in the source; their conditions may differ. Numbered stars: 1 amine (or outer) side, 2 acyl side, 3 side chain; on linkers, the order of the positions; unused ones are H or OH. Peptide text beside a SMILES is read from it. Suc = O=C(CCC(=O)[*:2])[*:1] Where only a bound is given, the exact number is not on record here.

Turning to `CC[C@H](C)[C@H](NC(=O)[C@H](CC(=O)O)NC(=O)[C@H](CC(C)C)NC(=O)[C@H](Cc1c[nH]cn1)NC(=O)[C@H](C)NC(=O)[C@H](Cc1ccccc1)NC(=O)[C@H](Cc1ccc(O)cc1)NC(=O)[C@@H](NC(=O)[C@H](C)NC(=O)[C@H](CCC(=O)O)NC(=O)[C@H](CCC(=O)O)NC(=O)[C@H](CC(=O)O)NC(=O)CCC(=O)O)C(C)C)C(=O)N[C@H](C(=O)N[C@@H](Cc1c[nH]c2ccccc12)C(=O)O)[C@@H](C)CC` [IRL1620, reference compound] (Suc-DEEAVYFAHLDIIW-OH), the “Observations of Animal Status” value in the data set with male SD rats (intravenous (tail vein) 30 µg/Kg) is recorded as “Developed rapid breathing at 13 minutes, showed no willingness to move at 30 minutes; recovered at 1.5 hours; also recorded: Developed rapid breathing at 15 minutes, showed no willingness to move at 25 minutes; recovered at 1.5 hours; also recorded: Lay still at 25 minutes, showed no willingness to move at 1.5 hours; found dead the next morning (estimated to have died during the night)”. The “Observations of Animal Status” value in the data set on male SD rats (intravenous (tail vein) 60 µg/Kg) was “Developed rapid breathing at 3 minutes; died at 8 minutes”. Further, the “Observations of Animal Status” value in the data set on male SD rats (intravenous (tail vein) 120 µg/Kg) is “Developed rapid breathing and the body turned purple at 5 minutes; died at 9 minutes”. For the same molecule, in “in vivo”, the MTD at 24 h is 0.03 mg/kg. This molecule also yielded a mRS-7D in the data set with rat model of pMACO [1] (day 7) of 2.54±2.03. In the data set on rat model of pMACO [1] (day 14), the mRS-14D is 2.77±2.66. Moreover, the mRS-21D in the data set on rat model of pMACO [1] (day 21) turned out to be 2.72±2.71. Moreover, the mRS-30D with rat model of pMACO [1] (day 30) was 2.52±2.87. Also, in the data set on rat model of pMACO [2], the “Grip Strength Test 3D/pre” value is 57%±11%, the “Grip Strength Test 7D/pre” value stood at 61%+13% and the “Grip Strength Test 24h/pre” value is on record as 47% ±27%. Moreover, in the data set with SD rats (setting [4]), the “maximum extent of decrease in blood pressure, of the baseline blood pressure” value is 16.1%±2.4% and the “time to the lowest blood pressure” value is ≤ 2 min. In the data set on SD rats (intravenous, IRL1620 5 µg/Kg), the “Maximum percentage of blood pressure reduction relative to baseline blood pressure (n = 3)” value was 16.1%±2.4% and the “Time from baseline blood pressure to the lowest blood pressure” value is given as “Less than 2 mins”. The “Foot fault Analysis Mean of 7D” value in the data set on rat model of pMACO [3] (percentage of foot faults at 7D, IRL1620 5 µg/Kg, administered 3 times (2, 4, 6 hours after modeling)) is recorded as 4.3%+3.14%. Also, the “Foot fault Analysis Mean of 24h” value with rat model of pMACO [3] (percentage of foot faults at 24h, IRL1620 5 µg/Kg, administered 3 times (2, 4, 6 hours after modeling)) is reported as 14.2%±17.61%. Also, the “Foot fault Analysis Mean of Pretest” value in the data set on rat model of pMACO [3] (percentage of foot faults, pretest (baseline before administration), groups IRL1620 5 µg/Kg, 3 times) is on record as 1%±2%.

(Values after EP4702986A1, “POLYPEPTIDE AND USE THEREOF” (Biocells (Beijing) Biotech Co., Ltd., priority 2023, dated 2024).)
